Data published in patent publication US6939953B2, “Leukotriene receptor” (Schering Corporation, priority 1999, dated 2005).
Read-outs that look alike come from different tables or passages of the source.

Key:
[1] = molecular target: T1, SP9030 (human leukotriene receptor, SEQ ID NO: 2) (Homo sapiens, UniProt Q9NPC1); test: Radioligand competition assay using ^3H-LTB4 as the label on membranes of COS-7 cells transfected with SP9030 cDNA; format: binding; conditions: for Affinity of the receptor for the ligand (in words): summary statement; for Ki: read-out: Ki (competition with ^3H-LTB4)
T1 construct: The ORF of SP9030 was cloned in the expression vector pCR3.1 (pCR3.1-SP9030); expressed in transfected cells; host or cells: COS-7 cells (membranes)
T1 sequence (Q9NPC1 1-358): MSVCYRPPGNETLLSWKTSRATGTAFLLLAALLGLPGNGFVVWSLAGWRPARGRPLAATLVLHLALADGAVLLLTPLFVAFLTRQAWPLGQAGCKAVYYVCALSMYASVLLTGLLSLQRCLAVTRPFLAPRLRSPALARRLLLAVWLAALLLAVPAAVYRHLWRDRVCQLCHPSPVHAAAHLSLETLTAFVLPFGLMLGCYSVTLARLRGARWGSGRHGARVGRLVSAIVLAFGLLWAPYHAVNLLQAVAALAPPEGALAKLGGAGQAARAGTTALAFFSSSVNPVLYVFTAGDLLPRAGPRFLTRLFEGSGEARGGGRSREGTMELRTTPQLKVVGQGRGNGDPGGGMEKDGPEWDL
Description: COS-7 cells, grown in DMEM/10% FCS until 80-90% confluence, were transfected with SuperFect agent (Giagene) at 20 μg DNA/150 mm plate. Forty eight hours after transfection, medium was changed to Opti-MEM or DMEM/Opti-MEM(1:1)/5% FCS. Cells were harvested 72 hours after transfection and membranes from the cells were prepared as follows. The cells were washed with 20 ml PBS without Ca^2+/Mg^2+ and incubated with 10 ml […] Hepes pH 7.4, 0.5 mM PMSF, 20 μg/ml aprotinin. The cells were scraped off the plate and vortexed. The cell suspension was then centrifuged at 13,000 g at 4° C. for 15 min. The pellets were re-suspended in 1.8 ml 50 mM Tris-Cl, pH 7.5 and vortexed. The membranes were homogenized with a 23-gauge needle. The protein concentration of the membrane preparations was determined with the BCA agents (Pierce).
Radioligand binding assays were performed to test the ability of SP9030, when expressed in cultured cells, to bind ^3H-labeled leukotriene. The ORF of SP9030 was cloned in the expression vector pCR3.1 (pCR3.1-SP9030). COS-7 cells were transfected with pCR3.1-SP9030 or pCR3.1 alone (mock transfection). Two days after transfection, the normal growth medium DMEM/10% FCS was replaced by either Opti-MEM or DMEM-Opti-MEM/5% FCS. The cells were allowed to grow one more day and then membranes were prepared for use in binding assay.
The reactions were incubated for 1 hour at 4° C. while rotated slowly. Multiscreen FB filters (Millipore) pre-soaked with 50 μl binding assay buffer for 1 hour at room temperature were used to filter the binding assays and the filters were washed twice with 100 μl 50 mM TrisCl, pH 7.5 (ice cold). Fifty microliters of scintillation fluid was added to the filters and counted to detect the bound radioligands. For radioligand competition assays, 160 μl binding assay buffer containing appropriate membranes were mixed with 20 μl of binding assay buffer containing 6% DMSO (v/v) and various concentrations of competing compounds. […] The final concentration of radioligand was 0.25 nM. Incubation conditions were the same as that used for the above described saturation assays.
COS-7 cells transfected with SP9030 cDNA were harvested three days after transfection and membrane prepared from cells used for binding assays.

[2] = molecular target: T2, SP9030 expressed in 293-EBNA cells (Homo sapiens, UniProt Q9NPC1); test: Intracellular Ca2+ flux measurement (FLIPR) in 293-EBNA cells expressing SP9030; format: cell-based; conditions: 293-EBNA cells transfected with SP9030, Fluo-3, FLIPR
T2 construct: expressed in transfected cells; host or cells: 293-EBNA cells
T2 sequence (Q9NPC1 1-358): T1 sequence (Q9NPC1 1-358)
Description: (§1) 293-EBNA cells, grown in DMEM containing 10% FCS until 80-90% confluence, were transfected with SuperFect transfection agent. The next day, cells were trypsinized off culture plates and washed with PBS lacking Ca^2+/Mg^2+. The cells were then seeded at a density of 35,000 cells per 100 μl medium) into 96-well plates that were pre-coated with poly-D-lysine (Becton Dickinson). The third day following transfection, medium was removed from cells and 100 μl Hank's balanced salt solution (lacking phenol red) containing 4 μM of Fluo-3, AM (Molecular Probes), 20 mM Hepes, pH 7.4, 0.1% (w/v) BSA and […] added and subsequently incubated at 37° C., 5% CO2 for 1 hour. The cells were then washed three times with 150 μl wash buffer containing HANK's BSS, 40 mM Hepes, pH 7.4 and […]. One hundred μl of the wash buffer was added after the final wash and Ca^2+ flux was measured after addition of 40 μl of wash buffer containing appropriate concentration of ligands. The FLIPR instrument (Molecular Device) was used in the measurement of Ca^2+ flux.
(§2) Intracellular function that the SP9030 receptor may mediate through activation by its ligand was examined in measurements of intracellular Ca^2+ flux.

[3] = test system: 293-EBNA cells mock transfected without SP9030 cDNA; test: Intracellular Ca2+ flux measurement (FLIPR) in mock transfected 293-EBNA cells; format: cell-based
Description: as §1, §2

Affinity of the receptor for the ligand (in words) [1] | Cellular Ca2+ release [2] | Ki ([1]; 0.25 nM ^3H-LTB4, Ki=EC50/(1+[^3H-LTB4]/Kd), Kd […]) [nM] | Structure (SMILES) | Ca2+ response to incubation with ligand [3] | Ki [1] [nM]
high affinity | – | – | CCCCC[C@H](O)/C=C/C=C\C/C=C\C/C=C\CCCC(=O)O [15(5)-OH-5z, 8z, 11z, 13e)-eicosatetraenoic acid] | – | –
high affinity | activated cellular Ca^2+ release | – | CCCCC/C=C\C[C@@H](O)/C=C/C=C/C=C\[C@@H](O)CCCC(=O)O [LTB4, leukotriene B4] | did not respond | –
high affinity | – | 8.6 ± 5.3 | CC/C=C\C/C=C\C[C@@H](O)/C=C/C=C/C=C\[C@@H](O)CCCC(=O)O [LTB5, leukotriene B5] | – | –

Structure (SMILES) | Affinity of the receptor for the ligand (in words) [1] | Cellular Ca2+ release [2] | Ki ([1]; 0.25 nM ^3H-LTB4, Ki=EC50/(1+[^3H-LTB4]/Kd), Kd […]) [nM] | Ca2+ response to incubation with ligand [3] | Ki [1] [nM]
CCCCC[C@H](O)/C=C/C=C\C=C\C=C\[C@@H](O)[C@@H](O)CCCC(=O)O [lipoxin A4] | high affinity | – | – | – | 112 ± 40
